Structures are written as SMILES. The source made the active and inactive calls. The rule behind the calls is not given here. Where a SMILES comes first, the peptide text is derived from it.

The series has as its system CCRIS mutagenicity, Ames/micronucleus/aberration tests. In words: CCRIS mutagenicity studies.
The mark [1] stands for this setting: Test System: AMES SALMONELLA TYPHIMURIUM, Strain/Indicator: TA98, Metabolic Activation: NONE, Method: STANDARD PLATE.
The mark [2] stands for this setting: Test System: AMES SALMONELLA TYPHIMURIUM, Strain/Indicator: TA98, Metabolic Activation: RAT, LIVER, S-9, AROCLOR 1254, Method: STANDARD PLATE.
[3] abbreviates: Test System: AMES SALMONELLA TYPHIMURIUM, Strain/Indicator: TA100, Metabolic Activation: NONE, Method: STANDARD PLATE.
The mark [4] stands for this setting: Test System: AMES SALMONELLA TYPHIMURIUM, Strain/Indicator: TA98, Metabolic Activation: NONE, Method: PREINCUBATION
Where [5] appears, read: Test System: AMES SALMONELLA TYPHIMURIUM, Strain/Indicator: TA100, Metabolic Activation: NONE, Method: PREINCUBATION
Where [6] appears, read: Test System: AMES SALMONELLA TYPHIMURIUM, Strain/Indicator: TA98, Metabolic Activation: RAT, LIVER, S-9, AROCLOR 1254 (10%), Method: PREINCUBATION
[7] abbreviates: Test System: AMES SALMONELLA TYPHIMURIUM, Strain/Indicator: TA100, Metabolic Activation: RAT, LIVER, S-9, AROCLOR 1254 (10%), Method: PREINCUBATION

For `CC(C)C[C@H](NC(=O)[C@H](Cc1ccccc1)NC(=O)CNC(=O)CN)C(=O)O` (H-GGFL-OH), the mutagenic call was “inactive; negative” under setting [1]; “inactive; negative” under setting [2]; “inactive; negative” under setting [3]; “inactive; negative” (Test System: AMES SALMONELLA TYPHIMURIUM, Strain/Indicator: TA100, Metabolic Activation: RAT, LIVER, S-9, AROCLOR 1254, Method: STANDARD PLATE); “inactive; negative” (Test System: AMES SALMONELLA TYPHIMURIUM, Strain/Indicator: TA1535, Metabolic Activation: NONE, Method: STANDARD PLATE); “inactive; negative” (Test System: AMES SALMONELLA TYPHIMURIUM, Strain/Indicator: TA1535, Metabolic Activation: RAT, LIVER, S-9, AROCLOR 1254, Method: STANDARD PLATE). Also, the mutagenic call was “inactive; negative” (Test System: AMES SALMONELLA TYPHIMURIUM, Strain/Indicator: TA1537, Metabolic Activation: NONE, Method: STANDARD PLATE) and “inactive; negative” (Test System: AMES SALMONELLA TYPHIMURIUM, Strain/Indicator: TA1537, Metabolic Activation: RAT, LIVER, S-9, AROCLOR 1254, Method: STANDARD PLATE).
Turning to `COc1cc(NC(C)=O)ccc1NC(C)=O`, the mutagenic call by setting is: under setting [1], “inactive; negative”; under setting [2], “inactive; negative”.
As to `O=C(Cl)c1c(Cl)cccc1Cl`, the mutagenic call under setting [4] is “active; positive”; the mutagenic call (Test System: AMES SALMONELLA TYPHIMURIUM, Strain/Indicator: TA98, Metabolic Activation: RAT LIVER S-9, PCB, Method: PREINCUBATION) was “active; positive”; the mutagenic call under setting [5] was “active; positive”; the mutagenic call (Test System: AMES SALMONELLA TYPHIMURIUM, Strain/Indicator: TA100, Metabolic Activation: RAT LIVER S-9, PCB, Method: PREINCUBATION) is “active; positive”; the mutagenic call (Test System: AMES SALMONELLA TYPHIMURIUM, Strain/Indicator: TA104, Metabolic Activation: NONE, Method: PREINCUBATION) is “inactive; negative”; the mutagenic call (Test System: AMES SALMONELLA TYPHIMURIUM, Strain/Indicator: TA104, Metabolic Activation: RAT LIVER S-9, PCB, Method: PREINCUBATION) is “active; positive”. In addition, the mutagenic call was “active; positive” (Test System: E.COLI, Strain/Indicator: WP2 UVRA, Metabolic Activation: NONE, Method: PREINCUBATION) and “active; positive” (Test System: E.COLI, Strain/Indicator: WP2 UVRA, Metabolic Activation: RAT LIVER S-9, PCB, Method: PREINCUBATION).
As to `O=C1OC(=O)c2c(Br)c(Br)c(Br)c(Br)c21`, the mutagenic call is “inactive; negative” (Test System: AMES SALMONELLA TYPHIMURIUM, Strain/Indicator: TA98, Metabolic Activation: HAMSTER, LIVER, S-9, AROCLOR 1254 (10%), Method: PREINCUBATION); “inactive; negative” under setting [4]; “inactive; negative” under setting [6]; “inactive; negative” (Test System: AMES SALMONELLA TYPHIMURIUM, Strain/Indicator: TA100, Metabolic Activation: HAMSTER, LIVER, S-9, AROCLOR 1254 (10%), Method: PREINCUBATION); “inactive; negative” under setting [5]; “inactive; negative” under setting [7]. Also, the mutagenic call (Test System: AMES SALMONELLA TYPHIMURIUM, Strain/Indicator: TA1535, Metabolic Activation: HAMSTER, LIVER, S-9, AROCLOR 1254 (10%), Method: PREINCUBATION) was “inactive; negative”; the mutagenic call (Test System: AMES SALMONELLA TYPHIMURIUM, Strain/Indicator: TA1535, Metabolic Activation: NONE, Method: PREINCUBATION) was “inactive; negative”; the mutagenic call (Test System: AMES SALMONELLA TYPHIMURIUM, Strain/Indicator: TA1535, Metabolic Activation: RAT, LIVER, S-9, AROCLOR 1254 (10%), Method: PREINCUBATION) was “inactive; negative”; the mutagenic call (Test System: AMES SALMONELLA TYPHIMURIUM, Strain/Indicator: TA1537, Metabolic Activation: HAMSTER, LIVER, S-9, AROCLOR 1254 (10%), Method: PREINCUBATION) was “inactive; negative”; the mutagenic call (Test System: AMES SALMONELLA TYPHIMURIUM, Strain/Indicator: TA1537, Metabolic Activation: NONE, Method: PREINCUBATION) is “inactive; negative”; the mutagenic call (Test System: AMES SALMONELLA TYPHIMURIUM, Strain/Indicator: TA1537, Metabolic Activation: RAT, LIVER, S-9, AROCLOR 1254 (10%), Method: PREINCUBATION) was “inactive; negative”.
`CNc1ccc2ncc(-c3ccccc3)nc2c1C`: the mutagenic call was “inactive; negative” under setting [4]; “active; positive” (Test System: AMES SALMONELLA TYPHIMURIUM, Strain/Indicator: TA98, Metabolic Activation: RAT, LIVER, S-9, PCB, Method: PREINCUBATION); “inactive; negative” under setting [5]; “active; positive” (Test System: AMES SALMONELLA TYPHIMURIUM, Strain/Indicator: TA100, Metabolic Activation: RAT, LIVER, S-9, PCB, Method: PREINCUBATION).
Regarding `O=[N+]([O-])c1cccc(CO/N=C/c2nc3cc([N+](=O)[O-])ccc3n2Cc2ccc(Cl)cc2)c1`, the mutagenic call is “inactive; negative” under setting [1]; “inactive; negative” (Test System: AMES SALMONELLA TYPHIMURIUM, Strain/Indicator: TA98, Metabolic Activation: RAT, LIVER, S-9, PHENOBARBITAL AND BETA-NAPHTHOFLAVONE, Method: STANDARD PLATE); “inactive; negative” under setting [3]; “inactive; negative” (Test System: AMES SALMONELLA TYPHIMURIUM, Strain/Indicator: TA100, Metabolic Activation: RAT, LIVER, S-9, PHENOBARBITAL AND BETA-NAPHTHOFLAVONE, Method: STANDARD PLATE).
For the compound `O=[N+]([O-])c1c2ccccc2cc2ccccc12`, the mutagenic call is “active; positive” (Test System: AMES SALMONELLA TYPHIMURIUM, Strain/Indicator: TA98, Metabolic Activation: HAMSTER, LIVER, S-9, AROCLOR 1254 (30%), Method: PREINCUBATION); “active; positive” under setting [4]; “active; positive” under setting [1]; “active; positive” under setting [6]; “active; positive” (Test System: AMES SALMONELLA TYPHIMURIUM, Strain/Indicator: TA98, Metabolic Activation: RAT, LIVER, S-9, AROCLOR 1254 (30%), Method: PREINCUBATION); “active; positive” (Test System: AMES SALMONELLA TYPHIMURIUM, Strain/Indicator: TA98, Metabolic Activation: RAT, LIVER, S-9, Method: STANDARD PLATE). The mutagenic call (Test System: AMES SALMONELLA TYPHIMURIUM, Strain/Indicator: TA100, Metabolic Activation: HAMSTER, LIVER, S-9, AROCLOR 1254 (30%), Method: PREINCUBATION) was “active; positive”; the mutagenic call under setting [5] was “active; positive”; the mutagenic call under setting [3] was “inactive; negative”; the mutagenic call under setting [7] was “active; positive”; the mutagenic call (Test System: AMES SALMONELLA TYPHIMURIUM, Strain/Indicator: TA100, Metabolic Activation: RAT, LIVER, S-9, AROCLOR 1254 (30%), Method: PREINCUBATION) is “active; positive”; the mutagenic call (Test System: AMES SALMONELLA TYPHIMURIUM, Strain/Indicator: TA100, Metabolic Activation: RAT, LIVER, S-9, Method: STANDARD PLATE) is “inactive; negative”.
Take `c1ccc2c(c1)-c1nc3ccccc3c3c1c-2nc1ccccc13`: the mutagenic call under setting [1] is “inactive; negative”; the mutagenic call (Test System: AMES SALMONELLA TYPHIMURIUM, Strain/Indicator: TA98, Metabolic Activation: RAT LIVER S-9, AROCLOR 1254, Method: STANDARD PLATE) was “inactive; negative”; the mutagenic call (Test System: ESCHERICHIA COLI, Strain/Indicator: WP2 UVR A, Metabolic Activation: NONE, Method: STANDARD PLATE) is “inactive; negative”; the mutagenic call (Test System: ESCHERICHIA COLI, Strain/Indicator: WP2 UVR A, Metabolic Activation: RAT LIVER S-9, AROCLOR 1254, Method: STANDARD PLATE) is “inactive; negative”.
